One test addresses T1, 5-HT1A receptor (Homo sapiens, UniProt P08908).
T1 construct: host or cells: CHO-K1 (co-expressing Gα15)
T1 sequence (P08908 1-422): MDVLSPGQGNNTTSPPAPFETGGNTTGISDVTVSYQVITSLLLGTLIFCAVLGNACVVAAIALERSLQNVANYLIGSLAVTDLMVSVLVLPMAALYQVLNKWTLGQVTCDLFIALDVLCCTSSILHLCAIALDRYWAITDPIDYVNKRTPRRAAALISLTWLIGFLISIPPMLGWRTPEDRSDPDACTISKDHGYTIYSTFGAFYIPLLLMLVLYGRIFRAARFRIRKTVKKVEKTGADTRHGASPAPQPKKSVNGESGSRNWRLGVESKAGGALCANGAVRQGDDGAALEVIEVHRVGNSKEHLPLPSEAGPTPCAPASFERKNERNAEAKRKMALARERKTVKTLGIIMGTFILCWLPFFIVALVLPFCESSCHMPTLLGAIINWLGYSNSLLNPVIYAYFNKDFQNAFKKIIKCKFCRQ
As to the kind of experiment: cAMP-Glo assay with fixed forskolin in +5-HT1A cells (CHO-K1/5-HT1A/Gα15). It is filed as cell-based. As to conditions: fixed (4 μM) forskolin; for 5-HT1A receptor modulation (conclusion from cAMP/luminescence trend) / % cAMP levels as dosages of compound decrease: +5HT1A cell cultures; for luminescence as dosages of ligand decrease: +5HT1A cell culture, reduced luminescence = increased cAMP. From the text: (§1) CHO-K1/Gα15 (GenScript, M00257) (−5-HT1A) and CHO-K1/5-HT1A/Gα15 (GenScript, M00330) (+5-HT1A) cells lines were used. Briefly, CHO-K1/Gα15 is a control cell line that constitutively expresses Gα15 which is a promiscuous Gq protein. This control cell line lacks any transgene encoding 5-HT1A receptors, but still responds to forskolin; thus, cAMP response to forskolin should be the same regardless of whether or not 5-HT1A agonists are present. Conversely, CHO-K1/5-HT1A/Gα15 cells stably express 5-HT1A receptor in the CHO-K1 host background. […] In +5-HT1A cells, Gα15 may be recruited in place of Gαi/o, which could theoretically dampen cAMP response (Rojas and Fiedler 2016, Front Cell Neurosci 10: 272). […] In contrast, tryptophan is not known to activate, or modulate in any way, 5-HT1A receptors, and was thus used as a negative control. Cells were maintained in complete growth media as recommended by supplier (GenScript) which is constituted as follows: Ham's F12 Nutrient mix (HAM's F12, GIBCO #11765-047) with 10% fetal bovine serum (FBS) (Thermo Scientific #12483020), 200 μg/ml zeocin (Thermo Scientific #R25005) and/or 100 μg/ml hygromycin (Thermo Scientific #10687010). The cells were cultured in a humidified incubator with 37° C. and 5% CO2. Cells maintenance was carried out as recommended by the cell supplier. Briefly, vials with cells were removed from the liquid nitrogen and thawed quickly in 37° C. water bath. Just before the cells were completely thawed the vial's outside was decontaminated by 70% ethanol spray. The cell suspension was then retrieved from the vial and added to warm (37° C.) complete growth media, and centrifuged at 1,000 rpm for 5 minutes. The supernatant was discarded, and the cell pellet was then resuspended in another 10 ml of complete growth media, and added to the 10 cm cell culture dish (Greiner Bio-One #664160). The media was changed every third day until the cells were about 90% confluent. The ˜90% confluent cells were then split 10:1 for maintenance or used for experiment.
As 5-HT1A activation inhibits cAMP formation, the ability of test molecules to modulate the 5-HT1A receptor response was measured via changes in the levels of cAMP produced due to application of 4 μM forskolin. The change in intracellular cAMP levels due to the treatment of novel molecules was measured using cAMP-Glo Assay kit (Promega # V1501). Briefly, +5-HT1A cells were seeded on 1-6 columns and base −5-HT1A cells were seeded on columns 7-12 of the white walled clear bottom 96-well plate (Corning, #3903). Both cells were seeded at the density of 30,000 cells/well in 100 μl complete growth media and cultured 24 hrs in humidified incubator at 37° C. and 5% CO2. On the experiment day, the media of cells was replaced with serum/antibiotic free culture media. Then the cells were treated for 20 minutes with test molecules dissolved in induction medium (serum/antibiotic free culture media containing 4 μM forskolin, 500 μM IBMX (isobutyl-1-methylxanthine, Sigma-Aldrich, Cat. #17018) and 100 μM (RO 20-1724, Sigma-Aldrich, Cat. #68279)). Forskolin induced cAMP formation whereas IBMX and RO 20-1724 inhibited the degradation of cAMP. PKA was added to the lysate, mixed, and subsequently the substrate of the PKA was added. PKA was activated by cAMP, and the amount of ATP consumed due to PKA phosphorylation directly corresponded to cAMP levels in the lysate. Reduced ATP caused reduced conversion of luciferin to oxyluciferin, conferring diminished luminescence as the result of 5-HT1A activation. Conversely, enhanced luminescence was expected in cases where 5-HT1A receptor modulation—imparted by a test molecule—caused downstream increases in ATP, thus imparting enhanced conversion of luciferin to oxyluciferin.

Test [1] deals with CHO-K1/Gα15 (−5-HT1A) cells. As to the kind of experiment: cAMP-Glo assay with fixed forskolin in −5-HT1A control cells (CHO-K1/Gα15). It is filed as cell-based. As to conditions: fixed (4 μM) forskolin.
Excerpt: as §1
As 5-HT1A activation inhibits cAMP formation, the ability of test molecules to modulate the 5-HT1A receptor response was measured via changes in the levels of cAMP produced due to application of 4 μM forskolin. The change in intracellular cAMP levels due to the treatment of novel molecules was measured using cAMP-Glo Assay kit (Promega # V1501). […] Reduced ATP caused reduced conversion of luciferin to oxyluciferin, conferring diminished luminescence as the result of 5-HT1A activation. Conversely, enhanced luminescence was expected in cases where 5-HT1A receptor modulation—imparted by a test molecule—caused downstream increases in ATP, thus imparting enhanced conversion of luciferin to oxyluciferin.

The target of the next test is T2, 5-HT2A receptor (Homo sapiens, UniProt P28223).
T2 construct: purchased PerkinElmer ES-313-M400UA
T2 sequence (P28223 whole entry): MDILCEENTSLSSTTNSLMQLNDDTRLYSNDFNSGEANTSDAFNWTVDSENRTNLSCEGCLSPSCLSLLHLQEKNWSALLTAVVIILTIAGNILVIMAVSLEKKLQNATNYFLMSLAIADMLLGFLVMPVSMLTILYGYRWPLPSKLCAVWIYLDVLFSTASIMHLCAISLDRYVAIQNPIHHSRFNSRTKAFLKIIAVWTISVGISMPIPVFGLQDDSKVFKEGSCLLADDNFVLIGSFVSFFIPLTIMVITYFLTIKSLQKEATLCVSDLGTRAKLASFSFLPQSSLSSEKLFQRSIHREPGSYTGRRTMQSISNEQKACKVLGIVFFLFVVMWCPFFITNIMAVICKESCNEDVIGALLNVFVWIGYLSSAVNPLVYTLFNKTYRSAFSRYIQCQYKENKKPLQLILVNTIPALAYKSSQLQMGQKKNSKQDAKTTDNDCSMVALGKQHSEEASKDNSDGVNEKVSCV
Kind of test: [3H]ketanserin competition binding assay (SPA) at the 5-HT2A receptor. As to conditions: fixed (1 nM) [3H]ketanserin, membranes containing 5-HT2A. From the text: Evaluation of drug binding is an essential step to characterization of all drug-target interactions (Fang 2012, Exp Opin Drug Discov 7:969). The binding affinity of a drug to a target is traditionally viewed as an acceptable surrogate of its in vivo efficacy (Núñez et al., 2012, Drug Disc Today 17: 10). Competition assays, also called displacement or modulation binding assays, are a common approach to measure activity of a ligand at a target receptor (Flanagan 2016, Methods Cell Biol 132: 191). In these assays, standard radioligands acting either as agonists or antagonists are ascribed to specific receptors. […] After incubation, the samples were read on a MicroBeta 2 Microplate Counter (Perkin Elmer). […] Equilibrium binding constants for ketanserin (Kd) were determined from saturation binding curves using the ‘one-site saturation binding analysis’ method of GraphPad PRISM software (Version 9.2.0). […] Ki values were calculated from the competition displacement data using the competitive binding analysis from GraphPad PRISM software. […] Specific binding in counts per minute (cpm) was calculated by subtracting non-specific binding from total binding. Specific binding (pmol/mg) was calculated from pmol of [^3H]ketanserin bound per mg of protein in the assay. The Kd was calculated by fitting the data with the one-site binding model of PRISM software (version 9.2.0).

As for `CCCCN(CCCC)CCc1c(C=O)[nH]c2cccc(OC)c12` [compound (XII)], at 5-HT1A receptor, the “5-HT1A receptor modulation (conclusion from cAMP/luminescence trend)” value is 5-HT1A modulation activity and the “% cAMP levels as dosages of compound decrease” value is on record as “decreased % cAMP levels”. In test [1], the “trend of % cAMP levels with decreasing compound in −5HT1A cell cultures” value is “not observed”.
The matching figures for `COc1ccc(C=O)c2[nH]cc(CCN)c12` [compound (X), 4-O-methyl-7-formyl psilocybin derivative]: “modulate 5-HT1A response”, “decreased % cAMP levels” and “not observed”.
For `CN(C)CCc1c[nH]c2ccccc12` [DMT], at 5-HT1A receptor, the “luminescence as dosages of ligand decrease” value is recorded as “reduced luminescence” and the “5-HT1A receptor modulation (conclusion from cAMP/luminescence trend)” value was 5-HT1A activity.
As for `CCN(CC)CCc1c[nH]c2c(C=O)ccc(O)c12` [compound (VIII), N,N-diethyl-7-formyl psilocybin derivative], on 5-HT1A receptor, the “5-HT1A receptor modulation (conclusion from cAMP/luminescence trend)” value is reported as 5-HT1A modulation activity and the “% cAMP levels as dosages of compound decrease” value is reported as “increased % cAMP levels”. In test [1], the “trend of % cAMP levels with decreasing compound in −5HT1A cell cultures” value is on record as “not observed”.
Turning to `CN(C)CCc1c[nH]c2cccc(O)c12` [psilocin], the “competition binding curve at the 5-HT2A receptor” value at 5-HT2A receptor was “binding”.
Consider `N[C@@H](Cc1c[nH]c2ccccc12)C(=O)O` [tryptophan], for which, on 5-HT1A receptor, the “luminescence as dosages of ligand decrease” value was “no trend in luminescence” and the “5-HT1A receptor modulation (conclusion from cAMP/luminescence trend)” value is listed as “lack of 5-HT1A modulation”. Further, the “competition binding curve at the 5-HT2A receptor” value at 5-HT2A receptor is reported as “no binding”.
Consider `NCCc1c[nH]c2ccc(O)cc12` [serotonin], for which, at 5-HT1A receptor, the “5-HT1A receptor modulation (conclusion from cAMP/luminescence trend)” value is recorded as 5-HT1A binding activity and the “% cAMP levels as dosages of compound decrease” value is given as “increased % cAMP levels”. Also, the “trend of % cAMP levels with decreasing compound in −5HT1A cell cultures” value in test [1] is on record as “not observed”.

(Values after patent publication US11845727B2, “Aldehyde and ketone derivatives of psilocybin and methods of using” (Enveric B[…] Inc., priority 2020, dated 2023).)
